Earlier results on four compounds are cited in patent publication US9974804B1, “Strontium-based composition, product, and method of using the same to control progression of osteoarthritis osteoporosis and tooth decay” (priority 2017, dated 2018).

The conditions of data set [1]: supplemented in the human diet.
For data set [2] the following is noted: three-year daily use, compared to the control group.
The conditions of data set [3]: compared to placebo group.
For data set [4] the following is noted: osteoporosis; daily doses of 6.4 grams for months to years.

As to `O=C([O-])[O-].[Sr+2]` [strontium carbonate], the tolerability / toxicity entry in data set [1] is “well tolerated without reported toxicity”.
Take `N#Cc1c(N(CC(=O)[O-])CC(=O)[O-])sc(C(=O)[O-])c1CC(=O)[O-].[Sr+2].[Sr+2]` [strontium ranelate]: in data set [2], the “reduction in hip fracture” value is reported as 36%, the “reduction in nonvertebral fracture” value was 19% and the “reduction in vertebral fracture” value was around 49%. For the same compound, in data set [3], the “increase in osteoblast activity parameters” value is recorded as around 10%; the “trabecular and cortical bone thickness” value is 14-18%.
Take `[Sr+2]` [strontium]: the “time after which fifty percent of bone strontium disappears” value (after strontium supplementation is discontinued) was 10 weeks. Further, the “daily renal clearance relative to that of calcium” value (renal tubule excretion) is on record as “about three”.
Turning to `CC(O)C(=O)[O-].CC(O)C(=O)[O-].[Sr+2]` (stereo not drawn) [strontium lactate], the marked subjective improvement in data set [4] was 84%.
